Columns and labels:
[1] = target: T1, Human recombinant USP1/UAF1 (Homo sapiens, UniProt O94782); assay: Enzymatic assay: USP1/UAF1 deubiquitination of Ubiquitin Rhodamine 110 (kinetic fluorescence); format: biochemical; settings: 2 nM USP1/UAF1, 15 min preincubation at RT, HEPES pH 8.0, 500 nM Ubiquitin Rhodamine 110
T1 construct: purchased R & D E-568-050; host or cells: baculovirus infected Sf21 cells
Protocol: Example A1: Enzymatic Assay
Human recombinant USP1/UAF1 expressed in baculovirus infected Sf21 cells were used (R & D, E-568-050). Test compound and/or vehicle was incubated with 2 nM of USP1/UAF1 in modified HEPES buffer pH 8.0 for 15 minutes at RT. The reaction was initiated by addition of 500 nM of Ubiquitin Rhodamine 110 (R & D, U-555-050) for kinetic reading. Slope change of fluorescence intensity was read spectrofluorimetrically at 485 nm/535 nm. Dose response of test compounds or reference compound ML-323 was analyzed by nonlinear regression of GraphPad prism software.

[2] = system: MDA-MB-436 cells; assay: MDA-MB-436 breast cancer cell proliferation assay (CellTiter-Glo); format: cell-based; settings: Homo sapiens, 168 h, 7 days, 37° C.
Protocol: Example A2: MDA-MB-436 Breast Cancer Cell Culture
MDA-MB-436 cells were grown in Leibovitz's L-15 medium with 10 μg/ml insulin, 16 μg/ml glutathione, 10% FBS. Cells were passaged at subconfluence after trypsinization and maintained in incubators at 37° C. in a humidified atmosphere with 5% CO2.
Example A3: MDA-MB-436 Breast Cancer Cell Proliferation Assay
Cell proliferation was determined using CellTiter-Glo® Luminescent Cell Viability Assay (Promega, #G7573). MDA-MB-436 cells were seeded in 384-well plates and allowed to attach for 24 h. Compounds were added into 384-well plate by ECHO, and incubated at 37° C. in a humidified atmosphere with 5% CO2. After 7 days, CellTiter-Glo® was added into 384 well plates, contents were mixed on an orbital shaker at 400 g for 2 min before centrifuging the plate for 2 min at 1000 rpm. After incubation at RT for 30 min, luminescence was read on envision.

T1 sequence (O94782 whole entry): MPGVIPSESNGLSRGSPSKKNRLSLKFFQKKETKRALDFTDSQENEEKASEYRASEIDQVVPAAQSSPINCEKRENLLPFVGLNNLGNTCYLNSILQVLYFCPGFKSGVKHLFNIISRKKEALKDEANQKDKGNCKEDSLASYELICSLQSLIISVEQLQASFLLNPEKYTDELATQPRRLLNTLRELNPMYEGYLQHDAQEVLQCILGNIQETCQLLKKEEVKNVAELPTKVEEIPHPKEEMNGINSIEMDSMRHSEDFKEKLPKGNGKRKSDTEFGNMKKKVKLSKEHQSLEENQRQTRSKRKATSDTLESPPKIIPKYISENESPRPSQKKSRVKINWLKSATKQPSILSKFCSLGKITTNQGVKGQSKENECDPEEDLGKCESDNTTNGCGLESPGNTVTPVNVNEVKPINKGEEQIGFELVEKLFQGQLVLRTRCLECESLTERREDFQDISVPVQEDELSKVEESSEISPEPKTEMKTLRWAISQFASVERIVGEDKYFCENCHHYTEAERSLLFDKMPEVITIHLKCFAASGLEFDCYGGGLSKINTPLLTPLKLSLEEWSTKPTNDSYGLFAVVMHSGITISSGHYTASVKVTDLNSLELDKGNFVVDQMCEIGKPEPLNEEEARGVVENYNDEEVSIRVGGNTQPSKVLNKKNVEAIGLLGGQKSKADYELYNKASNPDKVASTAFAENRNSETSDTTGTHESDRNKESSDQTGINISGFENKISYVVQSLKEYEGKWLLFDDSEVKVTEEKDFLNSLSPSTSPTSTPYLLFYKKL
T1 sequence (Q8TAF3 whole entry partner): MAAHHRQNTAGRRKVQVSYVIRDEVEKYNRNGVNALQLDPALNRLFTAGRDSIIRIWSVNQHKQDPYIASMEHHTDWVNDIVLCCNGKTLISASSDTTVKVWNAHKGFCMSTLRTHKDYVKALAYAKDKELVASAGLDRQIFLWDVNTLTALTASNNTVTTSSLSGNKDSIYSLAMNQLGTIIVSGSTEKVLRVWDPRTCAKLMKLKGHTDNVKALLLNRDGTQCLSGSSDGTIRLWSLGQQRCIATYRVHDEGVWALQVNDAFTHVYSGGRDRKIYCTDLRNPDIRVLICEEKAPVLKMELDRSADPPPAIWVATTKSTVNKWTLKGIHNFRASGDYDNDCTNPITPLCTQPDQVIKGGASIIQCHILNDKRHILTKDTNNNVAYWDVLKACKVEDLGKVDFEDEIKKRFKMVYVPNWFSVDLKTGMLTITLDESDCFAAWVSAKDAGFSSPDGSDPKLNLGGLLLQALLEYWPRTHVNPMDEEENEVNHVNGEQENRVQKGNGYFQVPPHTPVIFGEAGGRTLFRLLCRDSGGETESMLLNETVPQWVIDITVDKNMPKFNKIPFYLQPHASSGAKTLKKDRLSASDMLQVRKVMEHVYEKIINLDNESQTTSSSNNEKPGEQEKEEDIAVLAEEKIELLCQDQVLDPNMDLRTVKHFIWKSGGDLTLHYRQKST

## CC(C)c1ncccc1-c1ncnc2c1CN(c1ccc(-c3nc(C(F)(F)F)cn3C)cc1)CC2 [Compound 1, 4-(2-isopropylpyridin-3-yl)-6-(4-(1-methyl-4-(trifluoromethyl)-1H-imidazol-2-yl)phenyl)-5,6,7,8-tetrahydropyrido[4,3-d]pyrimidine]
[1]
  IC50: 1000 to 10000 nM
[2]
  IC50: 1000 to 10000 nM

## COc1ncnc(C2CC2)c1-c1nccc2c1CN(c1ccc(-c3nc(C(F)(F)F)cn3C)cn1)CC2 [Compound 2, 8-(4-cyclopropyl-6-methoxypyrimidin-5-yl)-2-(5-(1-methyl-4-(trifluoromethyl)-1H-imidazol-2-yl)pyridin-2-yl)-1,2,3,4-tetrahydro-2,7-naphthyridine]
[1]
  IC50: 50 to 1000 nM
[2]
  IC50: 50 to 1000 nM

## COc1ncnc(C2CC2)c1-c1nnn2c1CN(c1ccc(-c3nc(C(F)(F)F)cn3C)cc1)CC2 [Compound 3, 3-(4-cyclopropyl-6-methoxypyrimidin-5-yl)-5-(4-(1-methyl-4-(trifluoromethyl)-1H-imidazol-2-yl)phenyl)-4,5,6,7-tetrahydro-[1,2,3]triazolo[1,5-a]pyrazine]
[1]
  IC50: 50 to 1000 nM
[2]
  IC50: 50 to 1000 nM

## COc1ncnc(C2CC2)c1-c1nn(C)c2c1CN(c1ncc(-c3nc(C(F)(F)F)cn3C)s1)C2 [Compound 4, 2-(3-(4-cyclopropyl-6-methoxypyrimidin-5-yl)-1-methyl-4,6-dihydropyrrolo[3,4-c]pyrazol-5(1H)-yl)-5-(1-methyl-4-(trifluoromethyl)-1H-imidazol-2-yl)thiazole]
[1]
  IC50: 50 to 1000 nM
[2]
  IC50: 50 to 1000 nM

## COc1ncnc(C2CC2)c1-c1nn(C)c2c1CN(c1ccc(-c3nc(C(F)(F)F)cn3C)cn1)C2 [Compound 5, 3-(4-cyclopropyl-6-methoxypyrimidin-5-yl)-1-methyl-5-(5-(1-methyl-4-(trifluoromethyl)-1H-imidazol-2-yl)pyridin-2-yl)-1,4,5,6-tetrahydropyrrolo[3,4-c]pyrazole]
[1]
  IC50: 1000 to 10000 nM

## COc1ncnc(C2CC2)c1-c1nn(C)c2c1CN(c1ccc(-c3nc(C(F)(F)F)cn3C)nc1)C2 [Compound 6, 3-(4-cyclopropyl-6-methoxypyrimidin-5-yl)-1-methyl-5-(6-(1-methyl-4-(trifluoromethyl)-1H-imidazol-2-yl)pyridin-3-yl)-1,4,5,6-tetrahydropyrrolo[3,4-c]pyrazole]
[1]
  IC50: 1000 to 10000 nM

## COc1ncnc(C2CC2)c1-c1nn(C)c2c1CN(c1ccc(-c3nc(C(F)(F)F)cn3C)cc1)C2 [Compound 7, 3-(4-cyclopropyl-6-methoxypyrimidin-5-yl)-1-methyl-5-(4-(1-methyl-4-(trifluoromethyl)-1H-imidazol-2-yl)phenyl)-1,4,5,6-tetrahydropyrrolo[3,4-c]pyrazole]
[1]
  IC50: 50 to 1000 nM

## COc1ncnc(C2CC2)c1-c1nn(C)c2c1CN(c1ncc(-c3nc(C(F)(F)F)cn3C(C)C)s1)C2 [Compound 8, 2-(3-(4-cyclopropyl-6-methoxypyrimidin-5-yl)-1-methyl-4,6-dihydropyrrolo[3,4-c]pyrazol-5(1H)-yl)-5-(1-isopropyl-4-(trifluoromethyl)-1H-imidazol-2-yl)thiazole]
[1]
  IC50: 50 to 1000 nM
[2]
  IC50: 50 to 1000 nM

## CC(C)c1ncccc1-c1nn(C)c2c1CN(c1ncc(-c3nc(C(F)(F)F)cn3C)s1)C2 [Compound 9, 2-(3-(2-isopropylpyridin-3-yl)-1-methyl-4,6-dihydropyrrolo[3,4-c]pyrazol-5(1H)-yl)-5-(1-methyl-4-(trifluoromethyl)-1H-imidazol-2-yl)thiazole]
[1]
  IC50: 50 to 1000 nM

## COc1ncnc(C2CC2)c1-c1nn(C)c2c1CN(c1cnc(-c3nc(C(F)(F)F)cn3C)s1)C2 [Compound 10, 5-(3-(4-cyclopropyl-6-methoxypyrimidin-5-yl)-1-methyl-4,6-dihydropyrrolo[3,4-c]pyrazol-5(1H)-yl)-2-(1-methyl-4-(trifluoromethyl)-1H-imidazol-2-yl)thiazole]
[1]
  IC50: 50 to 1000 nM
[2]
  IC50: 50 to 1000 nM

## COc1ncnc(C2CC2)c1-n1nc(C)c2c1CN(c1ccc(-c3nc(C(F)(F)F)cn3C)cn1)CC2 [Compound 11, 1-(4-cyclopropyl-6-methoxypyrimidin-5-yl)-3-methyl-6-(5-(1-methyl-4-(trifluoromethyl)-1H-imidazol-2-yl)pyridin-2-yl)-4,5,6,7-tetrahydro-1H-pyrazolo[3,4-c]pyridine]
[1]
  IC50: 50 to 1000 nM
[2]
  IC50: < 50 nM

## CCn1cc(C(F)(F)F)nc1-c1ccc(N2CCc3c(C)nn(-c4c(OC)ncnc4C4CC4)c3C2)nc1 [Compound 12, 1-(4-cyclopropyl-6-methoxypyrimidin-5-yl)-6-(5-(1-ethyl-4-(trifluoromethyl)-1H-imidazol-2-yl)pyridin-2-yl)-3-methyl-4,5,6,7-tetrahydro-1H-pyrazolo[3,4-c]pyridine]
[1]
  IC50: 50 to 1000 nM
[2]
  IC50: < 50 nM

## COc1ncnc(C2CC2)c1-n1nc(C)c2c1CN(c1ccc(-c3nc(C(F)(F)F)cn3C(C)C)cn1)CC2 [Compound 13, 1-(4-cyclopropyl-6-methoxypyrimidin-5-yl)-6-(5-(1-isopropyl-4-(trifluoromethyl)-1H-imidazol-2-yl)pyridin-2-yl)-3-methyl-4,5,6,7-tetrahydro-1H-pyrazolo[3,4-c]pyridine]
[1]
  IC50: 50 to 1000 nM
[2]
  IC50: 50 to 1000 nM

## COc1ncnc(C2CC2)c1-n1nc(C)c2c1CN(c1ccc(-c3nc(C(F)(F)F)cn3C)nc1)CC2 [Compound 14, 1-(4-cyclopropyl-6-methoxypyrimidin-5-yl)-3-methyl-6-(6-(1-methyl-4-(trifluoromethyl)-1H-imidazol-2-yl)pyridin-3-yl)-4,5,6,7-tetrahydro-1H-pyrazolo[3,4-c]pyridine]
[1]
  IC50: 50 to 1000 nM
[2]
  IC50: 50 to 1000 nM

## COc1ncnc(C2CC2)c1-n1nc(C)c2c1CN(c1cnc(-c3nc(C(F)(F)F)cn3C)cn1)CC2 [Compound 15, 1-(4-cyclopropyl-6-methoxypyrimidin-5-yl)-3-methyl-6-(5-(1-methyl-4-(trifluoromethyl)-1H-imidazol-2-yl)pyrazin-2-yl)-4,5,6,7-tetrahydro-1H-pyrazolo[3,4-c]pyridine]
[1]
  IC50: < 50 nM
[2]
  IC50: < 50 nM

## COc1ncnc(C2CC2)c1-n1nc(C)c2c1CN(c1ncc(-c3nc(C(F)(F)F)cn3C)cn1)CC2 [Compound 16, 1-(4-cyclopropyl-6-methoxypyrimidin-5-yl)-3-methyl-6-(5-(1-methyl-4-(trifluoromethyl)-1H-imidazol-2-yl)pyrimidin-2-yl)-4,5,6,7-tetrahydro-1H-pyrazolo[3,4-c]pyridine]
[1]
  IC50: 50 to 1000 nM
[2]
  IC50: 50 to 1000 nM

## COc1ncnc(C2CC2)c1-n1nc(C)c2c1CN(c1ccc(-c3nc(C(F)(F)F)cn3C)c(F)c1)CC2 [Compound 17, 1-(4-cyclopropyl-6-methoxypyrimidin-5-yl)-6-(3-fluoro-4-(1-methyl-4-(trifluoromethyl)-1H-imidazol-2-yl)phenyl)-3-methyl-4,5,6,7-tetrahydro-1H-pyrazolo[3,4-c]pyridine]
[1]
  IC50: < 50 nM
[2]
  IC50: < 50 nM

## COc1ncnc(C2CC2)c1-n1nc(C)c2c1CN(c1ccc(-c3nc(C(F)(F)F)cn3C)cc1F)CC2 [Compound 18, 1-(4-cyclopropyl-6-methoxypyrimidin-5-yl)-6-(2-fluoro-4-(1-methyl-4-(trifluoromethyl)-1H-imidazol-2-yl)phenyl)-3-methyl-4,5,6,7-tetrahydro-1H-pyrazolo[3,4-c]pyridine]
[1]
  IC50: 50 to 1000 nM
[2]
  IC50: < 50 nM

## Cc1nn(-c2ccccc2C(C)C)c2c1CCN(c1ccc(-c3nc(C(F)(F)F)cn3C)cn1)C2 [Compound 19, 1-(2-isopropylphenyl)-3-methyl-6-(5-(1-methyl-4-(trifluoromethyl)-1H-imidazol-2-yl)pyridin-2-yl)-4,5,6,7-tetrahydro-1H-pyrazolo[3,4-c]pyridine]
[1]
  IC50: < 50 nM
[2]
  IC50: < 50 nM

## COc1ncnc(C2CC2)c1-n1nc(C)c2c1CN(c1ccc(-n3nc(C(F)(F)F)cc3C)cn1)CC2 [Compound 20, 1-(4-cyclopropyl-6-methoxypyrimidin-5-yl)-3-methyl-6-(5-(5-methyl-3-(trifluoromethyl)-1H-pyrazol-1-yl)pyridin-2-yl)-4,5,6,7-tetrahydro-1H-pyrazolo[3,4-c]pyridine]
[1]
  IC50: 50 to 1000 nM
[2]
  IC50: 50 to 1000 nM

## COc1ncnc(C2CC2)c1-n1nc(C)c2c1CN(c1ncc(-c3nc(C(F)(F)F)cn3C)s1)CC2 [Compound 21, 2-(1-(4-cyclopropyl-6-methoxypyrimidin-5-yl)-3-methyl-1,4,5,7-tetrahydro-6H-pyrazolo[3,4-c]pyridin-6-yl)-5-(1-methyl-4-(trifluoromethyl)-1H-imidazol-2-yl)thiazole]
[1]
  IC50: 50 to 1000 nM
[2]
  IC50: 50 to 1000 nM

## Cc1nn(-c2ccccc2C(C)C)c2c1CN(c1ncc(-c3nc(C(F)(F)F)cn3C)s1)C2 [Compound 22, 2-(1-(2-isopropylphenyl)-3-methyl-4,6-dihydropyrrolo[3,4-c]pyrazol-5(1H)-yl)-5-(1-methyl-4-(trifluoromethyl)-1H-imidazol-2-yl)thiazole]
[1]
  IC50: 50 to 1000 nM
[2]
  IC50: 1000 to 10000 nM

Source: patent US20260337193A1, “SMALL MOLECULE INHIBITORS OF UBIQUITIN SPECIFIC PROTEASE 1 (USP1) AND USES THEREOF” (Insilico Medicine IP Limited, priority 2023, published 2026)
